Legend:
[1] = system: Eimeria arloingi oocyst extracted from goat feces; assay: In-vitro oocyst sporulation assay (Example 2); format: cell-based; settings: in Capra hircus, read-out: sporulation impairment (inhibition of sporulation) compared to control
Description: Eimeria-infected feces were collected from goats and stored at 4° C. Later, 3 grams of feces were mixed with 42 ml of tap water. The sample was homogenized and passed through a mesh, after which the filtered liquid was collected into 50 ml tubes. The liquid was then washed three times with cold tap water and centrifuged (1,700 G, 5 minutes, 20° C.). In each wash, the supernatant was carefully removed and approximately 30 to 40 ml of cold water was added. After the last wash, the water was removed and replaced with saturated sugar flotation solution (500 gr sucrose in 320 ml double distilled water), wherein each tube was filled with up to 45 ml of the sugar flotation solution. Each tube was centrifuged twice, wherein after each round of centrifugation, the ring-shaped phase formed on the top of the sugar solution was collected (about 1-2 ml collected after each round) and preserved in a 50 ml plastic tube.
The plastic tube was filled with cold water and centrifuged again. Oocysts were found in the sediment after centrifugation. The water was gently removed and the concentration of the oocysts was evaluated. The oocysts were then stored at 4° C. until use (the use of unsporulated oocysts that are older than two weeks was avoided). It is noted that a 2% potassium dichromate solution may be used for conservation. The unsporulated oocytes were washed in cold phosphate buffered saline (PBS, X10) before use in order to remove potassium dichromate (if used). The concentration of the oocysts was adjusted to approximately 30,000/ml.
Extract was prepared according to Example 1 above. Extract can be mixed with Phosphate buffer saline (PBS, X1, w:w, 1:10) if not perfectly soluble in water.
Each assay was in triplicates for each concentration of extract and gallic acid purchased at Sigma. In addition, six concentrations of gallic acid (50, 150, 250, 350, 450, 550 ppm) were added to 2000 and 4000 ppm of the invention extract to check synergism of gallic acid and the extract on impairment of sporulation. […]

[2] = Water intake and toxicity of supplemented drinking water in chicks (Example 5); format: in vivo
Text: (§1) Water was supplied in 3-liter poultry troughs that were re-filled when needed. Tap water was initially given and water supplementation was initiated three days after chicks' arrival. Water treatments for the uninfected (C) birds were no antisolvent and no gallic acid (C_AS0%_GA0) and 1% antisolvent with 500 ppm of gallic acid (C_AS1%_GA500).
(§2) Water treatments for the infected (T) birds were bi-factorial with 3 levels of antisolvent (AS; 0, 0.5, and 1%) and two levels of gallic acid (GA; 0 and 500 ppm) resulting in 6 groups: […], T_AS0.5%_GA0, T_AS1%_GA0, T_AS0.5%_GA0, T_AS0.5% _GA500, and T_AS1%_GA500.
(§3) Birds were wing-tagged and weighed on infection day and then, 7 days after infection. Half of the birds were weighed and humanely euthanized by exposure to CO2 on day 14 after infection and the second half on day 17 after infection. Water intake was recorded. Droppings were collected from a 1 m^2 paper sheet placed in each group 12 h before each weighing and kept at 4° C. until oocysts were counted under a grated microscope at ×100 and ×400 at days 0, and 7.
Data for body weight (BW) and average daily gain was log-transformed in order to homogenize variances. The C_AS0%_GA0 and […] in order to assess the effect of infection. The C_AS0%_GA0 and the C_AS1%_GA500 were compared to evaluate possible toxicity due to water treatment. […]

[3] = system: Eimeria spp. (Paracox 5 at twenty-fold dose); assay: Eimeria-infected chicks given supplemented drinking water (Example 5); format: in vivo; settings: for Body weight of chicks (Means ± SE) / Average daily gain / Oocyst counts in droppings: C uninfected, T infected, AS % antisolvent, GA ppm gallic acid in water
Description: 160 chicks allotted to 8 treatments, encompassing two groups of uninfected birds and six groups of Eimeria-infected birds, were tested. Birds were administered water treatment from 7 days of age and infected when 10-days old.
Inoculation was individually, per os, by using a dose of Paracox 5, a live attenuated anticoccidial vaccine including administered at the twenty-fold the recommended dose (Table 2), in a volume of 1 ml, when chicks were 10 days old. Uninfected birds were given the same volume of saline. Eimeria spp were as in Table 2.
as §1, §2, §3
No existing method, based on mono-species Eimeria infection, was satisfactory. The duodenum was examined at three sites (proximal, medial, distal) and a separate score was recorded for each. In contrast, only one score was recorded for the ileum-jejunum, and one for the caeca. Organ scores were termed D (average of 3 sites along the duodenum), J, and C. Three composite scores were established: a. sum of the average duodenal score, the jejunal score and the caecal score; b. sum of the maximal duodenal, jejunal and caecal scores; c. number of lesion-affected organs (1-3).
Data for body weight (BW) and average daily gain was log-transformed in order to homogenize variances. The C_AS0%_GA0 and […] in order to assess the effect of infection. The C_AS0%_GA0 and the C_AS1%_GA500 were compared to evaluate possible toxicity due to water treatment. All groups encompassing bi-factorial levels of AS and GA were compared by bi-factorial ANOVA.
For the analysis of lesions, for each treatment and slaughter day, the Wilcoxon Rank Sum Test was run. Then, using the Iman-Connover method, a rank transformation was done on original data and a two-way ANOVA was run on the ranked data. The treatment x day interaction was significant for J. Sum DJC, and #organs affected and Pairwise comparisons were made by Tukey test.

[4] = system: Eimeria spp. (Paracox 5 at twenty-fold dose); assay: as above; format: in vivo; settings: d 14 relative to infection day; C uninfected, T infected; AS % antisolvent, GA ppm gallic acid in water

Compound | inhibition at 50 µg/mL [1] [%] | Water intake ([2]; code: C uninfected, T infected, AS % antisolvent (0.5% = 5,000 ppm, 1% = 10,000 ppm), GA ppm gallic acid in water) [ml chick^−1 dr^−1] | signs of toxicity ([2]; in vivo) | Body weight of chicks (Means ± SE) ([3]; D 17 relative to infection day) [ab] | Average daily gain ([3]; Days 0-7) [g/day] | Average daily gain ([3]; Days 8-14) [g/day] | Average daily gain ([3]; Days 14-17) [g/day] | Body weight of chicks (Means ± SE) ([3]; d 0 relative to infection day) | Oocyst counts in droppings ([3]; d 0 relative to infection day) [gr^−1] | Body weight of chicks (Means ± SE) ([3]; d 7 relative to infection day) [a] | Oocyst counts in droppings ([3]; d 7 relative to infection day) | Body weight of chicks (Means ± SE) ([3]; d 14 relative to infection day) [ab] | growth performance / body weight of Eimeria-infected birds, in words ([3]; water treatment from 7 days of age, infection at 10 days, dose in label) | Oocyst counts in droppings [4]
O=C(O)/C=C/c1ccc(O)c(O)c1 [caffeic acid, Caffeic acid] | 43 |  |  |  |  |  |  |  |  |  |  |  |  | 
COc1cc(C(=O)O)ccc1O [vanillic acid] | 23 |  |  |  |  |  |  |  |  |  |  |  |  | 
O=C(O)c1cc(O)c(O)c(O)c1 [Gallic acid, gallic acid] | 25 | 132 | No signs of toxicity whatsoever | 1290.0 ± 83.4 | 32.9 ± 1.4 | 53.2 ± 2.5 | 99.9 ± 6.2 | 168.9 ± 4.3 | 0 | 399.5 ± 13.4 | 10,650 gr^−1 | 984.4 ± 40.1 | no advantage in adding gallic acid if an AS treatment was given | 3,600 gr^−1
